Key:
[1] = tested on: DENV-3; experiment: Plaque assay in Huh-7 cells, DENV-3; type: cell-based; conditions: Dengue virus, DENV3, Huh-7, 48 h, read-out: EC50, infectious virus titre DENV 3
Procedure: (§1) To ensure the antiviral activity of 4-HPR is not cell-line specific Huh-7 cells were also infected with DENV-1, 2, 3 or 4 (MOI of 0.3) in the presence of increasing concentrations of 4-HPR, with infectious virus titres determined by plaque assay at 48 h p.i.

[2] = tested on: DENV-1; experiment: ADE-mediated DENV-1 infection of human PBMCs, plaque assay; type: cell-based; conditions: Dengue virus, DENV1, PBMC, MOI of 10, 48 h, read-out: ex vivo EC50, ADE-mediated DENV-1 infection
Procedure: The antiviral activity of 4-HPR was investigated in the more physiologically relevant human system of peripheral blood mononuclear cells (PBMCs), a major target of DENV infection in humans.
PBMCs were prepared from a healthy donor buffy coat using a Ficoll gradient, prior to ADE-mediated DENV-1 infection (MOI of 10) in the presence of increasing concentrations of 4-HPR or 4-MPR, and infectious virus titres determined by plaque assay 48 h later.

[3] = Cytotoxicity analysis in PBMCs; type: cell-based; conditions: human
[4] = tested on: DENV-2; experiment: Delayed addition in DENV-2 infected Huh-7 cells, viral titre by plaque assay; type: cell-based; conditions: 7.5 μM added 12 h p.i., at 60 h p.i.
Procedure: To gain further insight into the mode of action of 4-HPR, the human liver carcinoma cell line, Huh-7 cells were infected with DENV-2 (MOI of 1), followed by delayed addition of drug diluent DMSO (DENV only), 7.5 μM 4-HPR, 7.5 μM 4-MPR or 10 μM NITD008 (a previously described adenosine nucleoside inhibitor), 12 h post infection. Cells were lysed at the indicated times, RNA was extracted by Trizol and analysed by qPCR with fold change in expression of NS1 calculated relative to the untreated control (FIG. 5B). Concurrently, culture medium was collected and viral titres determined by plaque assay (FIG. 5C).

[5] = biological target: DENV-2 NS5 / IMPβ1 (Dengue virus type 2, UniProt P14340); experiment: AlphaScreen binding of His6-NS5 to biotinylated IMPβ1; conditions: 30 nM His6-NS5, 3 nM biotinylated IMPβ1, increasing concentrations of 4-HPR
Procedure: (§2) To investigate the specificity of 4-HPR inhibition of NS5-importin association, the binding of 30 nM His6-NS5 to 10 nM IMPα/β, (IMPα/β heterodimer containing biotinylated IMPβ1), 3 nM IMPαΔIBB (biotinylated IMPa with the IMPβ-binding domain removed), or 3 nM biotinylated IMPβ1, in the presence of increasing concentrations of 4-HPR, was investigated.

[6] = tested on: DENV-4; experiment: Plaque assay in Huh-7 cells, DENV-4; type: cell-based; conditions: Dengue virus, DENV4, Huh-7, 48 h, read-out: EC50, infectious virus titre DENV 4
Procedure: as §1

[7] = tested on: Vero cells; experiment: XTT cell viability assay in Vero cells; type: cell-based; conditions: 24 h, up to 25 μM
Procedure: To determine the effect of 4-HPR on cell viability, and to ensure that the reduced viral titres were not due to compound toxicity, XTT reagent was used to measure mitochondrial activity of drug treated cells. Briefly, Vero cells were incubated with 0, 1, 10 or 25 μM 4-HPR for 24 h. XTT reagent was added directly to cells and incubated for 6 h at 37° C. prior to spectrophotometric analysis. Data shown are the mean+SD of a single experiment performed in triplicate wells.

[8] = biological target: DENV-2 NS5 / IMPαΔIBB (Dengue virus type 2, UniProt P14340); experiment: AlphaScreen binding of His6-NS5 to IMPαΔIBB
Procedure: as §2

[9] = tested on: DENV-1; experiment: ADE-mediated DENV-1 infection of THP-1 cells, plaque assay; type: cell-based; conditions: Dengue virus, DENV1, THP-1, 48 h, read-out: EC50, ADE-mediated DENV-1 infection
Text: In a cell culture model of antibody-dependent enhanced (ADE) DENV infection, THP-1 human monocyte cells infected with DENV-1 in the presence of sub-neutralising levels of a humanized version of the 4G2 antibody, which is cross-reactive with flavivirus envelope proteins (Paradkar et al., 2010 Bio Sci Rep.), show increased virus production compared to cells infected with virus alone. This model mimics the ADE phenomenon thought to occur in patients infected with a second serotype of DENV, which is associated with more severe DENV disease.
Briefly, humanized 4G2 antibody (0.05 μg/ml) was combined with DENV-1 (MOI of 10), and 4-HPR (concentrations as indicated in FIG. 7) in serum-free media, and incubated on ice for 1 h for the immune complex to form. Immune complex inoculums were added to THP-1 cells and incubated for 48 h. Supernatants were collected after 2 days and infectious virus production was quantified by plaque assay.

[10] = tested on: CHIKV; experiment: CHIKV infection of HEK293T cells, plaque assay; type: cell-based; conditions: 5 μM, 24 h p.i.
Procedure: HEK293T cells were treated with 5 μM 4-HPR or 4-MPR for 2 h, then infected with CHIKV for 1 h (MOI of 0.1) in the absence of compound (FIG. 9A). Alternatively, HEK293T cells were infected with CHIKV for 1 h (MOI of 0.1) without pre-treating the cells with compound (FIG. 9B). In both instances, virus inoculums were removed, then fresh medium containing the indicated compound was added (FIG. 9A and FIG. 9B). Infectious virus titres were determined by plaque assay 24 h p.i. Data are the mean+standard deviation of one experiment performed in duplicate wells, represented as plaque forming units per ml (PFU/ml).

[11] = tested on: DENV-4; experiment: Cell-based flavivirus immunodetection assay in BHK-21 cells, DENV-4; conditions: Dengue virus, DENV4, BHK-21, 48 h, read-out: EC50, DENV-4 replication
Procedure: To investigate this, BHK-21 cells were infected with DENV serotypes 1, 2, 3 or 4 (MOI of 0.3) for 1 h in the presence of 4-HPR or 4-MPR (concentrations as indicated in FIG. 6A). Virus inoculum was removed and fresh media containing the indicated compounds was added. Virus infection rates were determined 48 h p.i. using a cell-based flavivirus immunodetection assay. Briefly, cells were fixed and stained for DENV structural protein, E, followed by addition of Alexa Fluor 488 anti-mouse IgG. Viral antigen quantification was performed using Imagexpress. Data shown are representative of a single experiment

[12] = tested on: West Nile virus, Kunjin strain (WNVKUN); experiment: West Nile virus (Kunjin strain) infection of Vero cells, plaque assay; type: cell-based; conditions: 10 μM, 4 h incubation of Vero cells at the time of infection
Procedure: FIG. 9C. Viral titre from a plaque assay conducted from Vero cells infected with West Nile virus (Kunjin strain; WNVKUN) after treatment with 10 μM 4-HPR for 4 h.

[13] = tested on: PERK pathway; experiment: Activation of PERK pathway of the unfolded protein response in DENV-infected cells; type: cell-based

In the case of `CC1=C(/C=C/C(C)=C/C=C/C(C)=C/C(=O)Nc2ccc(O)cc2)C(C)(C)CCC1` [4-HPR, N-(4-hydroxyphenyl) retinamide], the EC50 [1] is reported as 1400 nM, the EC50 [2] is reported as 810 nM and the CC50 at 48 h [3] is reported as > 13000 nM. The “virus titre lower than untreated and 4-MPR-treated controls” value [4] was 3 logs, the “NS5 binding to IMPβ1 alone” value [5] was “largely unaffected” and the EC50 [6] was 2100 nM. The “effect on cell viability (XTT)” value [7] was “no effect on cell viability”, the IC50 [8] was 1600 nM and the EC50 [9] was 850 nM. For the same molecule, the “reduction of infectious CHIKV produced” value ([10]; HEK293T cells pre-treated 2 h with compound) was ~100%, the “reduction of infectious CHIKV produced” value ([10]; HEK293T cells, compound added after infection) was ~95% and the EC50 [11] was 840 nM. For the same molecule, the “reduction in infectious virus produced (WNVKUN)” value [12] was 89% and the “activation of PERK pathway within the unfolded protein response” value [13] was “induces activation of the pro-apoptotic PERK pathway”.
